Test results as given in ChEMBL document CHEMBL2331223, “Synthesis of 2-aminomethyl-4-phenyl-1-azabicyclo[2.2.1]heptanes via LiAlH₄-induced reductive cyclization of 2-(4-chloro-2-cyano-2-phenylbutyl)aziridines and evaluation of their antimalarial activity” (Bioorg Med Chem Lett, 2013).

What was measured:
CHO = assay: Cytotoxicity against CHO cells by MTT assay; assay type: cell-based; conditions: Cricetulus griseus
Plasmodium falciparum [1] = assay: Resistant index, ratio of IC50 for chloroquine-resistant Plasmodium falciparum Dd2 to IC50 for chloroquine-sensitive Plasmodium falciparum D10; assay type: functional
Plasmodium falciparum [2] = assay: Antimalarial activity against chloroquine-sensitive Plasmodium falciparum D10; assay type: functional, organism-based
Plasmodium falciparum [3] = assay: Antimalarial activity against chloroquine-resistant Plasmodium falciparum Dd2; assay type: functional, organism-based
[4] = Selectivity index, ratio of IC50 for CHO cells to IC50 for chloroquine-sensitive Plasmodium falciparum D10; assay type: toxicity, cell-based; conditions: hamster, read-out: Ratio IC50

Row | SMILES | IC50 (CHO) | Ratio IC50 (Plasmodium falciparum [1]) | IC50 (Plasmodium falciparum [2]) | IC50 (Plasmodium falciparum [3]) | selectivity ratio [4]
1 | CC[C@H]1CN2CCc3cc(OC)c(OC)cc3[C@@H]2C[C@@H]1C[C@H]1NCCc2cc(OC)c(OC)cc21 [EMETINE] | 0.33 µM | – | – | – | –
2 | c1ccc(CNC[C@@H]2C[C@@]3(c4ccccc4)CCN2C3)cc1 (relative stereo) | 231 µM | 9.6 | 2.63 µM | 24.2 µM | 91.2
3 | Clc1ccc(CNC[C@@H]2C[C@@]3(c4ccccc4)CCN2C3)cc1 (relative stereo) | 71.2 µM | 1.7 | 1.39 µM | 2.4 µM | 51.1
4 | Cc1ccc(CNC[C@H]2C[C@@]3(c4ccccc4)CCN2C3)cc1 (relative stereo) | 163 µM | 1.5 | 10.3 µM | 15.9 µM | 15.7
5 | c1ccc(CNC[C@H]2C[C@@]3(c4ccccc4)CCN2C3)cc1 (relative stereo) | > 300 µM | 4.4 | 18.4 µM | 78.5 µM | –
6 | Cc1ccc(CNC[C@@H]2C[C@@]3(c4ccccc4)CCN2C3)cc1 (relative stereo) | 160 µM | 12.5 | 0.81 µM | 10 µM | 200
7 | Clc1ccc(CNC[C@H]2C[C@@]3(c4ccccc4)CCN2C3)cc1 (relative stereo) | 90.4 µM | 2 | 6.01 µM | 11.8 µM | 15.1
